Laboratory results as given in paper PMC10215352 (Biology, 2023).
Peptide text beside a SMILES is read from it.

Legend:
Type in all cases: cell-based
YdgR [1] = molecular target: T1, YdgR (Escherichia coli, UniProt P77304); assay: inhibition of β-Ala-Lys-AMCA uptake in E. coli; conditions: 10 mM peptide, 0.5 mM labelled substrate β-Ala-Lys-AMCA, pH 6.5, 37 °C; competing substrate
T1 construct: gene dtpA; full-length, C-terminal His6 tag, expressed in E. coli BL21(DE3) pLysS, whole-cell uptake
T1 sequence (P77304 1-500): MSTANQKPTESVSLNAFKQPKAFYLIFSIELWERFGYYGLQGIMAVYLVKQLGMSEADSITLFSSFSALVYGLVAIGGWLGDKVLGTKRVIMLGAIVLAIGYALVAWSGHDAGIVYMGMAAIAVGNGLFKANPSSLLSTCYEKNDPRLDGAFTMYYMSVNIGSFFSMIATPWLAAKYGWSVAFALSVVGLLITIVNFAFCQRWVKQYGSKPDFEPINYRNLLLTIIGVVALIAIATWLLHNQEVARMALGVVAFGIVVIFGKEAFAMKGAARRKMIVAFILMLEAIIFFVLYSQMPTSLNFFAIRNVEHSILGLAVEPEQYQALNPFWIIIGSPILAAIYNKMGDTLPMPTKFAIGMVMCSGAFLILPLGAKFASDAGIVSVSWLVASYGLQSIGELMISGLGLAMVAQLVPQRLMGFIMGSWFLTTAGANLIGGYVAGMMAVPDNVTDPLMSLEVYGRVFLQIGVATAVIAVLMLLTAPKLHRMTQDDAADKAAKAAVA

YjdL = molecular target: T2, YjdL (Escherichia coli, UniProt P39276); assay: fluorescent uptake in E. coli; conditions: 0.5 mM, labelled compound, cells preloaded with AA, with and without CCCP, 37 °C
T2 construct: gene dtpC; full-length, C-terminal His6 tag, expressed in E. coli BL21(DE3) pLysS, whole-cell uptake
T2 sequence (P39276 1-485): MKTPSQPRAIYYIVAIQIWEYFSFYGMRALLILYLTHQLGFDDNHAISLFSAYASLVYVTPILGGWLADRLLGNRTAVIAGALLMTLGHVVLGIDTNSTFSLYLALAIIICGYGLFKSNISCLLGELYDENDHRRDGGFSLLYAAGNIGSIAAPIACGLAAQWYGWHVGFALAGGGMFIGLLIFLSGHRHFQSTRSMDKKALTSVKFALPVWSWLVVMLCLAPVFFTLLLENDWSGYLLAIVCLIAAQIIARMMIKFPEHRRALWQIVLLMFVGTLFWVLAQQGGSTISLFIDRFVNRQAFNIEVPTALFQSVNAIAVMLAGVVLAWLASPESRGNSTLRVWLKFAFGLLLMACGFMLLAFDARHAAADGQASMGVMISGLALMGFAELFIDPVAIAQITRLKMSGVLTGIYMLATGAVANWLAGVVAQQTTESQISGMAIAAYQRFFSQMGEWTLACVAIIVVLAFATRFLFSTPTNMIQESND

YdgR [2] = molecular target: T1, YdgR; assay: fluorescent uptake in E. coli; conditions: 0.5 mM, labelled compound, pH 6.5, 37 °C

`C[C@H](N)C(=O)N[C@@H](C)C(=O)O` [AA] (H-Ala-Ala-OH) was tested, and the uptake inhibition (YdgR [1]) was “its uptake was significantly decreased in the presence of AA and AAA”.

`Cc1c(CC(=O)NCCCC[C@H](NC(=O)CCN)C(=O)O)c(=O)oc2cc(N)ccc12` [β-Ala-Lys-AMCA] was tested, and the “fluorescent uptake in E. coli” value (YjdL) was “YjdL and YdgR exhibited a significant decline in uptake activity in the presence of CCCP” and the “fluorescent uptake in E. coli” value (YdgR [2]) was “Overall β-Ala-Lys-AMCA uptake by CPEPOT was significantly lower than YdgR”.
